Article PMC7011792 (Journal of Enzyme Inhibition and Medicinal Chemistry, 2017)
Like-named read-outs stand apart in the source and are kept apart here.

Key:
Aβ1–42 = target: T1, Aβ1–42 (Homo sapiens, UniProt P05067); assay: Inhibition of self-induced Aβ1–42 aggregation (Thioflavin T assay); format: biochemical; conditions: compound 25 μM, 24 h, read-out: Inhibitory rate on self-induced Aβ1-42 aggregation
T1 construct: aliquots of 2.0 µL of Aβ1–42 (AS-64129–05 Anaspec Inc.); purchased Anaspec Inc. AS-64129–05
Description: Inhibitory effects of the compounds on self-induced Aβ1–42 aggregation were evaluated using a Thioflavin T (ThT)-(T3516, Sigma-Aldrich, St. Louis, MO) binding assay according to the previously reported method. […] The Aβ1–42 and the test sample solutions were incubated for 24 h at the room temperature.
The inhibitory rate of Aβ1–42 self-induced aggregation was calculated according to the following equation: (1-IFi/IFc) × 100%. IFi and IFc were the fluorescence intensities in the presence and absence of inhibitors, respectively, after subtracting the background fluorescence of the 5 mM Thioflavin T solution. Each measurement was repeated in triplicate. The inhibitory rate of the test compound was shown in mean ± SD.

ICR mice [1] = assay: Morris water maze test, scopolamine-induced cognitive impairment; conditions: for Latency to target (second), Day 5 / Latency to target (second), Day 6 / Latency to target (second), Day 7 / Latency to target (second), Day 8 / Latency to target (second), Day 9: learning and training, oral, plus scopolamine; for Latency to target (second), Day 5 / Latency to target (second), Day 6 / Latency to target (second), Day 7 / Latency to target (second), Day 8 / Latency to target (second), Day 9 / Latency to Target: ICR mice; for Latency to Target: probe trial, oral administration plus scopolamine (1 mg/kg ip), mean ± SEM, n = 6; for trajectory in the Morris water maze test: scopolamine-impaired ICR mice, compared to tacrine group
[2] = target: T2, AChE (EC 3.1.1.7) from electric eel (Electrophorus electricus, UniProt O42275); assay: biochemical; conditions: for IC50: AChE from electric eel, mean ± SEM of three experiments; for Selectivity index (SI) = BuChE IC50/AChE IC50: eqBuChE IC50 / eeAChE IC50
T2 construct: purchased Sigma-Aldrich C3389
Description: (§1) AChE (EC 3.1.1.7, Type VI-S, from electric eel, C3389; from human, C1682) and BuChE (EC 3.1.1.8, from equine serum, C0663; from human, B4186), 5,5'-dithiobis (2-nitrobenzoic acid) (DTNB, D218200), acetylthiocholine iodide (ATC, A5751), and butyrylthiocholine iodide (BTC, B3253) were obtained from Sigma-Aldrich (St. Louis, MO).
(§2) The inhibitory effects of the synthesised compounds in this paper were evaluated according to our previously reported method. […] ATC/BTC iodide solution (0.075 M) was prepared in deionised water. […] The assay buffer was prepared as follows: potassium dihydrogen phosphate (1.36 g, 10 mmol) was dissolved in 100 ml of water. The pH of the solution was then adjusted to 8.0 ± 0.1 with KOH. Stock solutions of the test samples were dissolved in ethanol to give a final concentration of 10^−4 M when diluted to the final volume of 3.32 ml. For each compound, a dilution series of at least five different concentrations (normally 10^−5–10^−9 M) were prepared.
(§3) For measurement, a cuvette containing 3.0 ml of phosphate buffer, 100 µL of AChE or BuChE, 100 µL of DTNB, and 100 µL of the test compound solution were added in sequence. The reaction was initiated after adding 20 µL of ATC or BTC, and the solution was mixed immediately. […] For the reference value, 100 µL of water replaced the test compound solution. For the blank control, additionally 100 µL of water replaced the enzyme solution. The measurement for each concentration was assayed in triplicate. GraphPad Prism 5 was used for data processing. The inhibition curve was fitted by plotting percentage enzyme activity (100% for the reference) versus logarithm of test compound concentration. The IC50 values were calculated according to the curve, and the data were shown in mean ± SEM.
(§4) The inhibitory effects on ChEs of all the target compounds were determined according to Ellman’s method. AChE from electrophorus electricus (eeAChE) and BuChE from equine serum (eqBuChE) were used in the assays.

[3] = target: T3, AChE (EC 3.1.1.7) from human (Homo sapiens, UniProt P22303); assay: Human AChE inhibition, Ellman's method; format: biochemical; conditions: for IC50: huAChE, mean ± SEM; for Selectivity index (SI) = BuChE IC50/AChE IC50, human enzymes: huBuChE IC50 / huAChE IC50
T3 construct: purchased Sigma-Aldrich C1682
Description: as §1
(§5) The inhibitory effects of the synthesised compounds in this paper were evaluated according to our previously reported method. Briefly, AChE/BuChE stock solution was diluted to give 2.5 units/mL (for eeAChE, eqBuChE, and huAChE) or 0.5 units/mL for huBuChE. ATC/BTC iodide solution (0.075 M) was prepared in deionised water. DTNB solution (0.01 M) was prepared using water containing 0.15% (w/v) sodium bicarbonate. The assay buffer was prepared as follows: potassium dihydrogen phosphate (1.36 g, 10 mmol) was dissolved in 100 ml of water. The pH of the solution was then adjusted to 8.0 ± 0.1 with KOH. Stock solutions of the test samples were dissolved in ethanol to give a final concentration of 10^−4 M when diluted to the final volume of 3.32 ml. For each compound, a dilution series of at least five different concentrations (normally 10^−5–10^−9 M) were prepared.
(§6) For measurement, a cuvette containing 3.0 ml of phosphate buffer, 100 µL of AChE or BuChE, 100 µL of DTNB, and 100 µL of the test compound solution were added in sequence. The reaction was initiated after adding 20 µL of ATC or BTC, and the solution was mixed immediately. Two minutes (eeAChE and eqBuChE) or 15 min (huAChE and huBuChE) after ATC or BTC addition, the absorption was measured at 25 °C (eeAChE and eqBuChE) or 37 °C (huAChE and huBuChE) at 412 nm, using a Shimadzu 160 spectrophotometer. For the reference value, 100 µL of water replaced the test compound solution. For the blank control, additionally 100 µL of water replaced the enzyme solution. The measurement for each concentration was assayed in triplicate. GraphPad Prism 5 was used for data processing. The inhibition curve was fitted by plotting percentage enzyme activity (100% for the reference) versus logarithm of test compound concentration. The IC50 values were calculated according to the curve, and the data were shown in mean ± SEM.

[4] = target: T4, BuChE (EC 3.1.1.8) from human (Homo sapiens, UniProt P06276); assay: Human BuChE inhibition, Ellman's method; format: biochemical; conditions: huBuChE; mean ± SEM
T4 construct: purchased Sigma-Aldrich B4186
Description: as §1, §5
as §6, with “The inhibition curve was fitted by plotting percentage enzyme activity (100% for the reference) versus logarithm of test compound concentration.” left out

ICR mice [5] = conditions: for ALT (U/L) / AST (U/L): mice serum, n = 6
Description: The activity of AST and ALT, two indicators of liver damage, was determined using corresponding assay kit (EF551 and EF550 for ALT, EH027, and EF548 for AST, Wako, Japan).
One hour after the collection of retrobulbar blood, mice were sacrificed and livers were harvested for morphological studies by using immunohistochemical method. Two 3 mm sections of each liver extending from the hilus to the margin of the left lateral lobe were isolated by Ultra-Thin Semiautomatic Microtome (Leica RM2245, Germany) and immediately placed in 10% buffered formaldehyde, fixed for two days, and embedded together in one paraffin block by using Paraffin Embedding Station (Leica EG1150H, Germany). Subsequently, 5 µm sections were prepared from these paraffin blocks. They were deparaffinated and stained with hematoxylin and eosin or by means of the periodic acid-Schiff procedure for glycogen.

[6] = target: T5, BuChE (EC 3.1.1.8) from horse serum (Equus caballus, UniProt P81908); assay: biochemical; format: biochemical; conditions: BuChE from horse serum; mean ± SEM of three experiments
T5 construct: purchased Sigma-Aldrich C0663; host or cells: equine serum
Description: as §1, §2, §3, §4

[7] = 22 h after ig administration, 151.5 µmol/kg
[8] = 36 h after ig administration, 151.5 µmol/kg

T3 sequence (P22303 32-614): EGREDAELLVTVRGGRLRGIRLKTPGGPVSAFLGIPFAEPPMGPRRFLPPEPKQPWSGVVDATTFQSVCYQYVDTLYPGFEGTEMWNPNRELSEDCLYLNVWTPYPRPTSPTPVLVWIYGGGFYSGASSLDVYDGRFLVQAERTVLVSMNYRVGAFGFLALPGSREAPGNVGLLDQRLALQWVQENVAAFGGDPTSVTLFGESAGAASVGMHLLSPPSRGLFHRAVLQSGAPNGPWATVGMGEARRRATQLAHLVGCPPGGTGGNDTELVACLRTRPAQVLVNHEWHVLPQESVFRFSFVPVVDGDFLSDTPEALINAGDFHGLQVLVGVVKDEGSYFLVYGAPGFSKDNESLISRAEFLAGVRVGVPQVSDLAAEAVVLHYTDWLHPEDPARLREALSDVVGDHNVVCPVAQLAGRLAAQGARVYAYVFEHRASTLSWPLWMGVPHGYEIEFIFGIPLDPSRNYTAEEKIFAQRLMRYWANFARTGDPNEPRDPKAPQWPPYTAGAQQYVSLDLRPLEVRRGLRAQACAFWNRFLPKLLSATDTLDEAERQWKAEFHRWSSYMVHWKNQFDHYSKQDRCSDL
T1 sequence (P05067 672-713): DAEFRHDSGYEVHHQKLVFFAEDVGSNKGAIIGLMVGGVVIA
T2 sequence (O42275 24-633): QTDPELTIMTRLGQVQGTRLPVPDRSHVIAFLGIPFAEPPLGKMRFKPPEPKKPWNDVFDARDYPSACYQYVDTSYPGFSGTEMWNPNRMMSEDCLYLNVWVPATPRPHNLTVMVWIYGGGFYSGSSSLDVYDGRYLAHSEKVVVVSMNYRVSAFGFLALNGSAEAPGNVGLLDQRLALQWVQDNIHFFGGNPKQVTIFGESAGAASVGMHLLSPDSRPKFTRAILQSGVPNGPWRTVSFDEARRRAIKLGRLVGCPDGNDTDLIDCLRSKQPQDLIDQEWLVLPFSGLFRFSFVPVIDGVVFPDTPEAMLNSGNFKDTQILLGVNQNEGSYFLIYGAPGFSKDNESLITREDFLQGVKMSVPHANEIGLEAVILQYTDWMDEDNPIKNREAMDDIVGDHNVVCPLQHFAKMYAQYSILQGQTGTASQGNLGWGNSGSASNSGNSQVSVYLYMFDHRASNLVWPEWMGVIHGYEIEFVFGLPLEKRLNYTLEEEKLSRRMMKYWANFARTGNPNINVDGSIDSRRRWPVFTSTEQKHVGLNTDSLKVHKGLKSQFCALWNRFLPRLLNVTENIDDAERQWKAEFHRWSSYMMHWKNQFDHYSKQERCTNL
T5 sequence (P81908 whole entry): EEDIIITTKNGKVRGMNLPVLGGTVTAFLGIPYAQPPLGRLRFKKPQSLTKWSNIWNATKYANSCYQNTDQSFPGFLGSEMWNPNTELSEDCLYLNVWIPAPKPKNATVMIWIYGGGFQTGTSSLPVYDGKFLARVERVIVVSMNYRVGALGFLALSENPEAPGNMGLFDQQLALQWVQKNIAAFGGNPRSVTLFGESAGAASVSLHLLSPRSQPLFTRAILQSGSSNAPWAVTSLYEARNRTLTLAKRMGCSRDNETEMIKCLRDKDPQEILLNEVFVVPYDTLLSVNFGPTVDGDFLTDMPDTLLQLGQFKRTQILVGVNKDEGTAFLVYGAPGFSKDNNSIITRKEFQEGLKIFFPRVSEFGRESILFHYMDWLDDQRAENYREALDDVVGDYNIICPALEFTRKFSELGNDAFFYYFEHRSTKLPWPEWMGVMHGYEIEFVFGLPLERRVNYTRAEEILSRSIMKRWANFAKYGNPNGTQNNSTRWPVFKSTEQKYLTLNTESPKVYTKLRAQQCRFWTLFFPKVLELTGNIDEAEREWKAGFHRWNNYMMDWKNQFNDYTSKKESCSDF
T4 sequence (P06276 29-602): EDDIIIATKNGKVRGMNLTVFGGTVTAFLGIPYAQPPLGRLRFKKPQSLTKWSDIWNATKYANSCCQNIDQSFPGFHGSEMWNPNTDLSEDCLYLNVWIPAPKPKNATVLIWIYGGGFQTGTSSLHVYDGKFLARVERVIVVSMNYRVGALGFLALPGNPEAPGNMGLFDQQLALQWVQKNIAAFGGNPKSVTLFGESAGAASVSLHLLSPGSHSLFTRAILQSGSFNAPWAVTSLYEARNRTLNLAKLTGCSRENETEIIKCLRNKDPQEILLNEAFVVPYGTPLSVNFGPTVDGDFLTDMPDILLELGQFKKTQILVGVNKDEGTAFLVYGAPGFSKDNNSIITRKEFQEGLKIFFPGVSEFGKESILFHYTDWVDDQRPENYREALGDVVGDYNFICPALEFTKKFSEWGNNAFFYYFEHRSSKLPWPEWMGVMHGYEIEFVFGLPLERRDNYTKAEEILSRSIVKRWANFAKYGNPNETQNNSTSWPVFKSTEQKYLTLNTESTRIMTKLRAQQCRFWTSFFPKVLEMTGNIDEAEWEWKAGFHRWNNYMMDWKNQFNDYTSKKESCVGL

With `Oc1ccc(/C=C/c2cc(O)cc(O)c2)cc1` [Resveratrol, reference compound] the inhibition at 25 µM (Aβ1–42) was 30.4%.
`O=C(/C=C/c1ccc(Cl)cc1)NCCCCCCNc1c2c(nc3ccccc13)CCCC2` [Compound 27, (E)-3-(4-chlorophenyl)-N-(6-((1,2,3,4-tetrahydroacridin-9-yl)amino)hexyl)acrylamide] was tested, and the inhibition at 25 µM (Aβ1–42) was 42.2%, the “Latency to target (second), Day 5” value (ICR mice [1]) was 57.1 ± 6.8 s and the “Latency to target (second), Day 6” value (ICR mice [1]) was 41.5 ± 5.0 s. The “Latency to target (second), Day 7” value (ICR mice [1]) was 39.2 ± 4.3 s, the “Latency to target (second), Day 8” value (ICR mice [1]) was 27.6 ± 2.5 s and the “Latency to target (second), Day 9” value (ICR mice [1]) was 28.3 ± 1.7 s. The “Latency to Target” value (ICR mice [1]) was 25.6 ± 1.8 s, the “trajectory in the Morris water maze test” value (ICR mice [1]) was “much shortened distances as compared to tacrine group” and the IC50 [2] was 6.9 ± 1.2 nM. The “Selectivity index (SI) = BuChE IC50/AChE IC50” value [2] was 1.9, the IC50 [3] was 16.5 nM and the “Selectivity index (SI) = BuChE IC50/AChE IC50, human enzymes” value [3] was 0.3. The IC50 [4] was 5.7 nM, the “morphologic changes in liver” value (ICR mice [5]; mouse, in vivo) was “did not cause remarkable morphologic changes in liver” and the IC50 [6] was 12.9 ± 1.7 nM.
In the case of `Nc1c2c(nc3ccccc13)CCCC2` [Tacrine, reference compound], the “Latency to target (second), Day 5” value (ICR mice [1]) is reported as 69.2 ± 11.0 s, the “Latency to target (second), Day 6” value (ICR mice [1]) is reported as 58.3 ± 7.9 s and the “Latency to target (second), Day 7” value (ICR mice [1]) is reported as 50.3 ± 6.3 s. The “Latency to target (second), Day 8” value (ICR mice [1]) was 37.1 ± 5.1 s, the “Latency to target (second), Day 9” value (ICR mice [1]) was 38.2 ± 2.6 s and the “Latency to Target” value (ICR mice [1]) was 34.5 ± 1.3 s. For the same compound, the “ALT (U/L)” value (ICR mice [5]; 8 h after ig administration, 151.5 µmol/kg (tacrine 30 mg/kg, equimolar test compounds)) was 38.0 ± 3.5 U/L, the “AST (U/L)” value (ICR mice [5]; 8 h after ig administration, 151.5 µmol/kg) was 134.5 ± 9.9 U/L and the “ALT (U/L)” value (ICR mice [5]; [7]) was 38.7 ± 5.2 U/L. For the same compound, the “AST (U/L)” value (ICR mice [5]; [7]) was 125.8 ± 16.2 U/L, the “morphologic changes in liver” value (ICR mice [5]; 36 h after administration, HE staining, compared to control group) was “did not cause remarkable morphologic changes in liver” and the “ALT (U/L)” value (ICR mice [5]; [8]) was 40.9 ± 3.5 U/L. For the same compound, the “AST (U/L)” value (ICR mice [5]; [8]) was 138.7 ± 8.5 U/L.
In the case of `COc1ccc(/C=C/C(=O)NCCCCCCNc2c3c(nc4ccccc24)CCCC3)cc1` [Compound 30, (E)-3-(4-methoxyphenyl)-N-(6-((1,2,3,4-tetrahydroacridin-9-yl)amino)hexyl)acrylamide], the inhibition at 25 µM (Aβ1–42) is reported as 34.6%, the “Latency to target (second), Day 5” value (ICR mice [1]) is reported as 59.1 ± 7.0 s and the “Latency to target (second), Day 6” value (ICR mice [1]) is reported as 47.3 ± 6.6 s. For the same compound, the “Latency to target (second), Day 7” value (ICR mice [1]) was 46.4 ± 6.8 s, the “Latency to target (second), Day 8” value (ICR mice [1]) was 32.4 ± 5.3 s and the “Latency to target (second), Day 9” value (ICR mice [1]) was 33.2 ± 4.0 s. For the same compound, the “Latency to Target” value (ICR mice [1]) was 29.4 ± 1.9 s, the “trajectory in the Morris water maze test” value (ICR mice [1]) was “much shortened distances as compared to tacrine group” and the IC50 [2] was 3.7 ± 1.5 nM. The “Selectivity index (SI) = BuChE IC50/AChE IC50” value [2] was 6.1, the IC50 [3] was 15.3 nM and the “Selectivity index (SI) = BuChE IC50/AChE IC50, human enzymes” value [3] was 0.5. The IC50 [4] was 8 nM, the “morphologic changes in liver” value (ICR mice [5]; mouse, in vivo) was “did not cause remarkable morphologic changes in liver” and the IC50 [6] was 22.5 ± 5.9 nM.
In the case of `O=C(/C=C/c1cccc([N+](=O)[O-])c1)NCCCCCCNc1c2c(nc3ccccc13)CCCC2` [Compound 18, (E)-3-(3-nitrophenyl)-N-(6-((1,2,3,4-tetrahydroacridin-9-yl)amino)hexyl)acrylamide], the IC50 [2] is reported as 3.6 ± 0.5 nM, the “Selectivity index (SI) = BuChE IC50/AChE IC50” value [2] is reported as 1.9 and the IC50 [6] is reported as 6.8 ± 0.6 nM.
`O=C(/C=C/c1cccc(O)c1)NCCCCCCNc1c2c(nc3ccccc13)CCCC2` [Compound 33, (E)-3-(3-hydroxyphenyl)-N-(6-((1,2,3,4-tetrahydroacridin-9-yl)amino)hexyl)acrylamide] was tested, and the IC50 [2] was 6.4 ± 2.1 nM, the “Selectivity index (SI) = BuChE IC50/AChE IC50” value [2] was 3.9 and the IC50 [6] was 25.1 ± 6.5 nM.
